Biological target: human NaV 1.7 (Homo sapiens, UniProt Q15858)
Experiment: E-VIPR optical membrane potential assay with electrical stimulation
Format: cell-based
Settings: sodium channel inhibition; read-out: Binned Activity Data (IC50)
Outline: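 Membrane-potential read-out: background-subtracted 460 nm/580 nm ratio during a 9 s current-controlled stimulus, 400 Hz scan. Before stimulation, NaV1.7-HEK cells carried coumarin/oxonol dye and compound (final DMSO 0.625%) for 20–35 min at room temperature; tetracaine 125 μM served as positive control.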

Chain of human NaV 1.7 (Q15858 whole entry): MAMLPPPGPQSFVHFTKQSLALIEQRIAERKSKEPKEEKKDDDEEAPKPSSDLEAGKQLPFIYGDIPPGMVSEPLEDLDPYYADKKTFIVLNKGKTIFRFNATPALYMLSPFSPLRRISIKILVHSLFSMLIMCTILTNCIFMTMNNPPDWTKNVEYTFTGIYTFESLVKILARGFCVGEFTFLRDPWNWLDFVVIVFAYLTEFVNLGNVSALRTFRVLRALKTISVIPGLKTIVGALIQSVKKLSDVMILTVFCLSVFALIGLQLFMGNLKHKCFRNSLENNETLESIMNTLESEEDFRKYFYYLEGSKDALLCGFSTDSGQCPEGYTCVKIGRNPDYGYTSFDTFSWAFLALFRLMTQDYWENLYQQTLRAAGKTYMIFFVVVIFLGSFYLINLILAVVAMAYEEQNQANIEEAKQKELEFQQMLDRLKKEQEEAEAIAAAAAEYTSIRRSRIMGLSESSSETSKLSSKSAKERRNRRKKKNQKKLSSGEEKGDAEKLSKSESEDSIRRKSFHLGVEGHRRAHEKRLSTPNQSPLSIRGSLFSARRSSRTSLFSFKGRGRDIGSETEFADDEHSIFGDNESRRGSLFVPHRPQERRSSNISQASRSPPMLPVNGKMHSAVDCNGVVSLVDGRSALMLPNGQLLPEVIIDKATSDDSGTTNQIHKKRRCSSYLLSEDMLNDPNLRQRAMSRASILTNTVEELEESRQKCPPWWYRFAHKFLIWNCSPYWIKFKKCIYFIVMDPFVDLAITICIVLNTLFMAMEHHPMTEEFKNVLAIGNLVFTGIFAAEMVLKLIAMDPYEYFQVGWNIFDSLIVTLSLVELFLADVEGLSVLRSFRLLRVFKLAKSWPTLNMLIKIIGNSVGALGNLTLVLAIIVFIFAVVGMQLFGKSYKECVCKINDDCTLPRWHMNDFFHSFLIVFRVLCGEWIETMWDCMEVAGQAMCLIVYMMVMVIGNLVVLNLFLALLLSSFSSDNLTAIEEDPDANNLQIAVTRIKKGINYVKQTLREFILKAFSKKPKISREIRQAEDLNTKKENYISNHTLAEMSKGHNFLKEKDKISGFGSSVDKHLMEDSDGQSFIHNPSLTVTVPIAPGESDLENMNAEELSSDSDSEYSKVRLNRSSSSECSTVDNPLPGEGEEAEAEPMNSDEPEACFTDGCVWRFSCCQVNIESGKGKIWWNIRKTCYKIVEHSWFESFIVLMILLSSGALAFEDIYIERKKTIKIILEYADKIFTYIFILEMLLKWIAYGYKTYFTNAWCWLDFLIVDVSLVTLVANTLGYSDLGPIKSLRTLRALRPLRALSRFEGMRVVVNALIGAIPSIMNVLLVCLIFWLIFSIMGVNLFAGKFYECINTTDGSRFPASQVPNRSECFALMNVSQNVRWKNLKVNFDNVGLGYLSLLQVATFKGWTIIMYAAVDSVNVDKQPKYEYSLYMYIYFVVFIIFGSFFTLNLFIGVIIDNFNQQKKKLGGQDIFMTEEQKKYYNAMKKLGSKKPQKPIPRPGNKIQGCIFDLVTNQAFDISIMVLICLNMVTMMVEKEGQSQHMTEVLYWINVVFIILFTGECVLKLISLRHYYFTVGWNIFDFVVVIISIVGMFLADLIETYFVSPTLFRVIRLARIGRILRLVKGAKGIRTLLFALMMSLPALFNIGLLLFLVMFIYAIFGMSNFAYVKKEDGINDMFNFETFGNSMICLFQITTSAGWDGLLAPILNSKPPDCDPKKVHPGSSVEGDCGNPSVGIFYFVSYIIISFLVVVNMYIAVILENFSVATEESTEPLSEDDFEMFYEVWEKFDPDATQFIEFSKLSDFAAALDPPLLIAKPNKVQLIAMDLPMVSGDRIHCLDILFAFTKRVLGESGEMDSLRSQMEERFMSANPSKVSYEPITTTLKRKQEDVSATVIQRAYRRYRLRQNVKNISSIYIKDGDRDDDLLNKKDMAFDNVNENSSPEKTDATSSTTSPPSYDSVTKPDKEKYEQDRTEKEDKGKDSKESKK

Row | Structure (SMILES) | IC50 [µM]
1 | COC(C)(C)c1ccc(C(=O)N2CCC3(CC2)Oc2cc(Cl)ccc2-n2cccc23)cc1C [Compound 193] | ≤ 2
2 | Cn1ncc2c1-c1ccccc1OC21CCN(C(=O)c2cccc(F)c2OC(F)F)CC1 [Compound 194] | ≤ 2
3 | CS(=O)(=O)c1ccc2n1-c1ccccc1OC21CCN(C(=O)c2ccccc2OC(F)F)CC1 [Compound 195] | ≤ 2
4 | COc1cc(C(=O)N2CCC3(CC2)Oc2cc(F)ccc2-n2cccc23)ccc1OC1CCC(O)C1 (stereo not shown) [Compound 196] | ≤ 2
5 | N#Cc1ccc2n1-c1ccccc1OC21CCN(C(=O)c2ccc(OCCO)cc2)CC1 [Compound 197] | ≤ 2
6 | CCCCc1nc2cc(C(=O)N3CCC4(CC3)Oc3ccccc3-n3c(C(F)(F)F)ccc34)ccc2o1 [Compound 198] | ≤ 2
7 | COc1cc(C(=O)N2CCC3(CC2)Oc2cc(Cl)ccc2-n2cccc23)ccc1OCC(C)(C)OC [Compound 199] | ≤ 2
8 | CCc1ccc(C(=O)N2CCC3(CC2)Oc2cc(F)ccc2-n2cccc23)cc1OC [Compound 200] | ≤ 2
9 | Cc1cc(C(=O)N2CCC3(CC2)Oc2ccccc2-c2c3cnn2C)c(C)cc1OC(C)C [Compound 202] | ≤ 2
10 | COc1cc(C(=O)N2CCC3(CC2)Oc2ccccc2-n2cccc23)ccc1OC[C@@H](C)OC [Compound 203] | ≤ 2
11 | COc1ccc(C(=O)N2CCC3(CC2)Oc2ccccc2-c2c3cnn2C)c(OC(C)C)c1 [Compound 205] | ≤ 2
12 | COc1cc(C(=O)N2CCC3(CC2)Oc2ccccc2-n2c(C#N)ccc23)ccc1O [Compound 206] | ≤ 2
13 | CC(C)(C)S(=O)(=O)c1ccsc1C(=O)N1CCC2(CC1)Oc1ccccc1-n1c(C(F)(F)F)ccc12 [Compound 207] | ≤ 2
14 | CC(C)Oc1ccc(C(=O)N2CCC3(CC2)Oc2cc(C#N)ccc2-n2cccc23)cc1 [Compound 208] | ≤ 2
15 | O=C(c1ccc(S(=O)(=O)NC2CC2)cc1)N1CCC2(CC1)Oc1ccccc1-n1cccc12 [Compound 209] | ≤ 2
16 | COCCOc1ccc(C(=O)N2CCC3(CC2)Oc2cc(Cl)ccc2-n2cccc23)cc1C [Compound 211] | ≤ 2
17 | CCOc1ccccc1C(=O)N1CCC2(CC1)Oc1ccccc1-c1c2cnn1C [Compound 212] | ≤ 2
18 | Cc1cc(C(=O)N2CCC3(CC2)Oc2ccc(Cl)cc2-c2c3cnn2C)ccc1OC(C)C [Compound 213] | ≤ 2
19 | O=C(c1cc2occc2[nH]1)N1CCC2(CC1)Oc1ccccc1-n1c(C(F)(F)F)ccc12 [Compound 214] | > 5
20 | Cc1cc(C(=O)N2CCC3(CC2)Oc2cc(F)ccc2-n2cccc23)ccc1C#N [Compound 215] | ≤ 2
21 | COc1cc(C(=O)N2CCC3(CC2)Oc2cc(Cl)ccc2-n2cccc23)ccc1C(C)(C)O [Compound 216] | ≤ 2
22 | Cc1ccccc1C(=O)N1CCC2(CC1)Oc1ccccc1-c1c2cnn1C [Compound 217] | 2 to 5
23 | Cn1ncc2c1-c1ccccc1OC21CCN(C(=O)c2cn(C)c3ccccc23)CC1 [Compound 218] | ≤ 2
24 | COCc1ccccc1C(=O)N1CCC2(CC1)Oc1ccccc1-c1c2cnn1C [Compound 219] | ≤ 2
25 | CC(C)(C)c1ccc(C(=O)N2CCC3(CC2)Oc2cc(Cl)ccc2-n2cccc23)cc1C#N [Compound 220] | ≤ 2
26 | Cc1cc(C)cc(C(=O)N2CCC3(CC2)Oc2cc(Cl)ccc2-n2cccc23)c1 [Compound 222] | ≤ 2

Row | Structure (SMILES) | IC50 [µM]
27 | COCCOc1ccc(C(=O)N2CCC3(CC2)Oc2ccccc2-n2c(C(F)(F)F)ccc23)cc1OC [Compound 223] | ≤ 2
28 | Cc1nc2cccc(C(=O)N3CCC4(CC3)Oc3ccccc3-c3c4cnn3C)c2o1 [Compound 224] | ≤ 2
29 | COc1ccc(C(=O)N2CCC3(CC2)Oc2ccccc2-c2c3cnn2C)cc1Cl [Compound 227] | 2 to 5
30 | COc1cc(C(=O)N2CCC3(CC2)Oc2cc(F)ccc2-n2cccc23)ccc1OC[C@H]1COC(C)(C)O1 [Compound 228] | ≤ 2
31 | Cn1cc2c(n1)-c1ccccc1OC21CCN(C(=O)c2ccc(C(C)(C)O)cc2)CC1 [Compound 230] | ≤ 2
32 | C[C@](O)(CO)c1ccc(C(=O)N2CCC3(CC2)Oc2ccccc2-n2c(C(F)(F)F)ccc23)cc1 [Compound 231] | > 5
33 | CC(C)N(C)S(=O)(=O)c1ccc(C(=O)N2CCC3(CC2)Oc2ccccc2-c2c3cnn2C)cc1 [Compound 233] | 2 to 5
34 | CC(=O)c1ccc2n1-c1ccccc1OC21CCN(C(=O)c2ccc(S(=O)(=O)NC3CC3)cc2)CC1 [Compound 235] | ≤ 2
35 | COc1ccc(C)cc1C(=O)N1CCC2(CC1)Oc1ccccc1-c1c2cnn1C [Compound 236] | > 5
36 | COC[C@@H](C)Oc1ccc(C(=O)N2CCC3(CC2)Oc2ccccc2-n2cccc23)cc1C(F)(F)F [Compound 237] | ≤ 2
37 | COCCCOc1ccc(C(=O)N2CCC3(CC2)Oc2cc(Cl)ccc2-n2cccc23)cc1C(F)(F)F [Compound 238] | ≤ 2
38 | CCc1ccc(C(=O)N2CCC3(CC2)Oc2ccccc2-n2cccc23)cc1OC [Compound 239] | ≤ 2
39 | COc1cc(OC)c(C(=O)N2CCC3(CC2)Oc2ccccc2-c2nn(C)cc23)cc1OC [Compound 240] | 2 to 5
40 | O=C(c1ccccc1)N1CCC2(CC1)Oc1ccccc1-n1cccc12 [Compound 241] | > 5
41 | Cn1ncc2c1-c1ccccc1OC21CCN(C(=O)c2cccc(F)c2F)CC1 [Compound 242] | > 5
42 | Cn1ncc2c1-c1ccccc1OC21CCN(C(=O)c2ccc(S(=O)(=O)NC3CC3)cc2)CC1 [Compound 243] | ≤ 2
43 | CNC(=O)c1ccc2n1-c1ccc(Cl)cc1OC21CCN(C(=O)c2ccc(OC(C)C)c(C)c2)CC1 [Compound 245] | 2 to 5
44 | CC(C)Oc1ccc(C(=O)N2CCC3(CC2)Oc2ccccc2-c2nn(C)cc23)c(F)c1 [Compound 246] | ≤ 2
45 | COc1cc(C(=O)N2CCC3(CC2)Oc2ccccc2-n2cccc23)ccc1OC(C)C [Compound 247] | ≤ 2
46 | COc1ccc(C(=O)N2CCC3(CC2)Oc2cc(F)ccc2-n2cccc23)cc1C(F)(F)F [Compound 249] | ≤ 2
47 | Cn1ccc(C(=O)N2CCC3(CC2)Oc2cc(Cl)ccc2-n2c(C(F)(F)F)ccc23)cc1=O [Compound 250] | 2 to 5
48 | CCc1ccc(C(=O)N2CCC3(CC2)Oc2ccccc2-c2c3cnn2C)cc1OC [Compound 251] | ≤ 2
49 | Cc1c(C(=O)N2CCC3(CC2)Oc2ccccc2-c2c3cnn2C)cnn1-c1ccccc1 [Compound 252] | 2 to 5
50 | CCn1ncc2c1-c1ccccc1OC21CCN(C(=O)c2ccc(S(=O)(=O)C(C)C)cc2)CC1 [Compound 253] | ≤ 2
51 | Cc1cc(C(=O)N2CCC3(CC2)Oc2ncccc2-n2nccc23)ccc1OC(C)C [Compound 255] | ≤ 2
52 | COc1cc(C(=O)N2CCC3(CC2)Oc2ccccc2-c2c3cnn2C)ccc1OC(C)C [Compound 256] | ≤ 2

Row | Structure (SMILES) | IC50 [µM]
53 | CCc1ccc(C(=O)N2CCC3(CC2)Oc2ccccc2-c2sc(C)nc23)cc1OC [Compound 257] | ≤ 2
54 | Cn1ncc2c1-c1ccc(F)cc1OC21CCN(C(=O)c2ccccc2OC(F)F)CC1 [Compound 258] | ≤ 2
55 | COc1cccc(C)c1C(=O)N1CCC2(CC1)Oc1ccccc1-c1c2cnn1C [Compound 259] | ≤ 2
56 | CC(C)S(=O)(=O)c1ccc(C(=O)N2CCC3(CC2)Oc2ccccc2-n2c(C(F)F)ccc23)cc1 [Compound 260] | 2 to 5
57 | Cc1nc(C(=O)N2CCC3(CC2)Oc2ccccc2-c2nn(C)cc23)ccc1OC(C)C [Compound 262] | ≤ 2
58 | O=C(c1ccc(O[C@H]2CCOC2)c(C(F)(F)F)c1)N1CCC2(CC1)Oc1ccccc1-n1cccc12 [Compound 263] | ≤ 2
59 | CC(C)(C)c1ccc(C(=O)N2CCC3(CC2)Oc2ccccc2-n2c3ccc2S(C)(=O)=O)cc1 [Compound 265] | ≤ 2
60 | CCn1ncc2c1-c1cc(F)ccc1OC21CCN(C(=O)c2ccc(OC(C)C)c(C)c2)CC1 [Compound 267] | ≤ 2
61 | CCCOc1ccc(C(=O)N2CCC3(CC2)Oc2cc(Cl)ccc2-n2cccc23)cc1C(F)(F)F [Compound 269] | ≤ 2
62 | O=C(c1ccc(S(=O)(=O)C2CC2)cc1)N1CCC2(CC1)Oc1ccccc1-n1c(C(F)(F)F)ccc12 [Compound 270] | ≤ 2
63 | Cc1cc(C(=O)N2CCC3(CC2)Oc2cccnc2-c2c3cnn2C)ccc1OC(C)C [Compound 271] | > 5
64 | N#Cc1cccc(C(=O)N2CCC3(CC2)Oc2cc(Cl)ccc2-n2cccc23)c1 [Compound 272] | > 5
65 | Cc1cc(C(=O)N2CCC3(CC2)Oc2ccccc2-c2c3c(C)nn2C)ccc1OC(C)C [Compound 274] | ≤ 2
66 | CC(C)Oc1ccc(C(=O)N2CCC3(CC2)Oc2ccccc2-c2nn(C)cc23)cc1CO [Compound 276] | ≤ 2
67 | O=C(c1cc(Cl)cc(Cl)c1)N1CCC2(CC1)Oc1cc(Cl)ccc1-n1cccc12 [Compound 277] | ≤ 2
68 | COc1cc(C(=O)N2CCC3(CC2)Oc2ccccc2-c2nn(C)cc23)ccc1OC(C)C [Compound 281] | ≤ 2
69 | CC(C)Oc1ccc(C(=O)N2CCC3(CC2)Oc2ccccc2-n2c3ccc2S(C)(=O)=O)cc1F [Compound 282] | ≤ 2
70 | Cn1ncc2c1-c1cc(Cl)ccc1OC21CCN(C(=O)c2ccccc2OC(F)F)CC1 [Compound 283] | ≤ 2
71 | Cn1cc2c(n1)-c1ccccc1OC21CCN(C(=O)c2ccc(OC(F)F)cc2)CC1 [Compound 284] | ≤ 2
72 | N#Cc1ccc2n1-c1ccccc1OC21CCN(C(=O)c2ccccc2OC(F)F)CC1 [Compound 285] | ≤ 2
73 | CC(C)Oc1ccc(C(=O)N2CCC3(CC2)Oc2ccccc2-n2c([S+](C)[O-])ccc23)cc1CO (stereo not shown) [Compound 286] | ≤ 2
74 | COc1cc(C(=O)N2CCC3(CC2)Oc2cc(Cl)ccc2-n2cccc23)ccc1C1(O)COC1 [Compound 287] | ≤ 2
75 | COc1ccc2c(c1)OC1(CCN(C(=O)c3ccc(OC(C)C)c(C)c3)CC1)c1cnn(C)c1-2 [Compound 289] | ≤ 2
76 | Cn1ncc2c1-c1ccccc1OC21CCN(C(=O)c2cccc3c2OCC3)CC1 [Compound 290] | ≤ 2
